According to publication PMC9304322, “Targeting retinoic acid receptor alpha-corepressor interaction activates chaperone-mediated autophagy and protects against retinal degeneration” (Nature Communications, 2022):
“And” between values parts separate entries of the source, which are not always exact repeats. Equal values may be shown once.

Legend:
[1] = system: primary human fibroblast expressing the KFERQ-PS-Dendra reporter; assay: CMA activity, KFERQ-PS-Dendra reporter in primary human fibroblasts; assay type: cell-based; parameters: key to CMA activity, mean (Fig. S2c): puncta per cell
Experimental: (§1) Cells were transduced with lentivirus carrying the KFERQ-PS-Dendra reporter as before. Cells were photoactivated by exposure to a 3.5 mA (current constant) light emitting diode (LED: Norlux, 405 nm) for 3 min and then plated in glass-bottom 96 well plates. At the desired times, cells were fixed with 4% PFA and imaged using high-content microscopy (Operetta system, Perkin Elmer). Images were quantified using the manufacturer’s software in a minimum of 1,200 cells in 9 independent fields per well. […] This was particularly important in the case of primary human cells where the efficiency of transduction was ~65%. To avoid confounding effects for drug-induced changes in cell volume or adherence to the plate that could bring a fraction of the cells per field outside of focus, we set a threshold to count only […] that have at least 1/10 of the average number of […] detected in the untreated wells for each cell type (3–4 puncta/cell in the case of NIH3T3 and N2a cells and 5 puncta/cell in primary human fibroblasts).

NIH3T3 = assay: Intracellular proteolysis of long half-life proteins; assay type: cell-based, mouse
Experimental: Confluent cells were labelled with [^3H]leucine (2μCi/ml) (NEN-PerkinElmer Life Sciences) for 48 h and then extensively washed and maintained in medium with an excess of unlabeled leucine. Proteolysis was calculated from aliquots of the medium taken at different times and precipitated in trichloroacetic acid, as the amount of acid-precipitable radioactivity transformed to acid-soluble radioactivity at each time. Where indicated cell were treated during the chase with […] leupeptin (Sigma, #108975) and […] NH4Cl (to determine lysosomal degradation) or with 100 μm MRT 68921 dihydrochloride (Tocris, #5780) (to determine macroautophagy degradation).

[2] = system: CMA network components in NIH3T3 cells; assay: qPCR of CMA network components and CMA activation score; assay type: cell-based, mouse; parameters: LAMP2A mRNA level / HSP90AB1 mRNA level / HSP40 mRNA level / RAC1 mRNA level / AKT1 mRNA level / AKT2 mRNA level / CTSA mRNA level / NFATC1 mRNA level / HSC70 mRNA level / NCOR1 mRNA level / NFE2L2 mRNA level / RAB11A mRNA level / RARa mRNA level / HSP90AA1 mRNA level / EEF1A1 mRNA level / RICTOR mRNA level: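 fold of untreated cells after 20 µM for 24 h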; key to CMA activation score: weighted (LAMP-2A ×2), directed (±1) average of CMA network expression;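 as to AKT1 mRNA level: fold of untreated cells after 20 µM for 24 h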;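 as to AKT2 mRNA level: fold of untreated cells after 20 µM for 24 h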;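 as to CTSA mRNA level: fold of untreated cells after 20 µM for 24 h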;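 as to HSC70 mRNA level: fold of untreated cells after 20 µM for 24 h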;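 as to HSP40 mRNA level: fold of untreated cells after 20 µM for 24 h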;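 as to HSP90AA1 mRNA level: fold of untreated cells after 20 µM for 24 h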;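 as to HSP90AB1 mRNA level: fold of untreated cells after 20 µM for 24 h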;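 as to LAMP2A mRNA level: fold of untreated cells after 20 µM for 24 h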;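 as to NCOR1 mRNA level: fold of untreated cells after 20 µM for 24 h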;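 as to NFATC1 mRNA level: fold of untreated cells after 20 µM for 24 h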;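 as to NFE2L2 mRNA level: fold of untreated cells after 20 µM for 24 h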;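 as to PHLPP1 mRNA level: fold of untreated cells after 20 µM for 24 h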;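 as to RAB11A mRNA level: fold of untreated cells after 20 µM for 24 h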;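 as to RAC1 mRNA level: fold of untreated cells after 20 µM for 24 h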;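 as to RARa mRNA level: fold of untreated cells after 20 µM for 24 h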
Experimental: RNA was extracted from individual retinas or tissue sections (brain, liver). Total RNA from retinas was extracted using TRIzol Reagent (Invitrogen, # 15596-018), and reverse transcription was performed using the High-Capacity cDNA Reverse Transcription Kit (Applied Biosystems, # 4374966) according to the manufacturer’s instructions. Quantitative real-time PCR was performed in a Light Cycler 480 Instrument (Roche) with Taqman LightCycler 480 probes Master Mix (Roche, #4887301001) using Taqman assays (Life Technologies). For cells in culture, RNA was extracted using RNeasy Plus Mini Kit (Qiagen, #74034), and reverse transcription was performed using Superscript III (Invitrogen, #18080051). Quantitative RT-PCR analysis were performed using Power SYBR Green PCR Master Mix (Applied Biosystems, #4368708) on a StepOne Plus Real-Time PCR System (Applied Biosystems). Mm01184405_m1 probe (Thermofisher) was used for rhodopsin and the sequence of all the other probes used for qPCR is included in Supplementary Table 2.
CMA index[14] was calculated using data set from[23]–[25]. Briefly, each element of the CMA network[13] has attributed a weight. As LAMP-2A is the rate-limiting component of CMA, it was given a weight of 2. Every other element received a weight of 1. Then, every element was attributed direction score that is +1 or −1 based on the known effect of a given element on CMA activity. The score was then calculated as the weighted/ directed average of expression counts of every element of the CMA network.

[3] = system: neuroblastoma cell line N2a expressing the KFERQ-PS-Dendra reporter; assay: CMA activity, KFERQ-PS-Dendra reporter in N2a cells; assay type: cell-based, mouse; parameters: CMA activity, mean (Fig. S2a): unit not given here
Experimental: as §1

[4] = Fig. 2d (left), individual replicate values, one sample t test

## CC(=O)Nc1ccc(C2=Nc3ccc(Cl)cc3OC2)cc1 [CA77]
[1]; concentration 0.02
  CMA activity, mean (Fig. S2c): 27.1536
[1]; concentration 0.2
  CMA activity, mean (Fig. S2c): 22.1247
[1]; concentration 2
  CMA activity, mean (Fig. S2c): 23.6319
[1]; concentration 5
  CMA activity, mean (Fig. S2c): 30.8194
[1]; in words
  CMA activation in human cells: efficiently activated CMA
NIH3T3; NIH3T3, 10 μM
  duration of the increase in degradation of long-lived proteins: remained upregulated 24 h
NIH3T3; Time 6
  Lysosomal proteolysis, Mean (Fig. S3c): 3.76
NIH3T3; Time 12
  Lysosomal proteolysis, Mean (Fig. S3c): 7.75
[2]; [4]
  AKT1 mRNA level: 1.86 and 1.18 and 1.20 and 0.75 and 0.97 and 1.87 and 1.39
  AKT2 mRNA level: 1.39 and 1.17 and 1.12 and 0.66 and 1.01 and 1.53 and 1.20
  CTSA mRNA level: 1.67 and 1.46 and 1.22 and 0.88 and 1.08 and 1.45
  EEF1A1 mRNA level: 1.15 and 1.98 and 1.39 and 1.19 and 1.55
  HSC70 mRNA level: 1.44 and 1.49 and 1.28 and 0.82 and 1.24 and 1.57
  HSP40 mRNA level: 0.73 and 0.99 and 0.82 and 0.53 and 0.77 and 1.06
  HSP90AA1 mRNA level: 1.50 and 0.94 and 0.92 and 0.76 and 0.78 and 0.87 and 0.90
  HSP90AB1 mRNA level: 1.21 and 0.89 and 0.79 and 0.62 and 0.81 and 0.82 and 0.83
  LAMP2A mRNA level: 1.32 and 1.55 and 1.43 and 1.87 and 2.34 and 2.75 and 2.33
  NCOR1 mRNA level: 2.35 and 1.24 and 0.55 and 0.97 and 2.06 and 1.85
  NFATC1 mRNA level: 2.10 and 1.29 and 1.23 and 0.50 and 0.73 and 1.05 and 1.18
  NFE2L2 mRNA level: 1.29 and 1.15 and 1.04 and 0.89 and 0.77 and 1.26
  PHLPP1 mRNA level: 2.13 and 1.55 and 1.38 and 2.29 and 1.20 and 1.48 and 1.51
  RAB11A mRNA level: 1.15 and 0.97 and 0.81 and 0.59 and 0.79 and 0.89 and 1.07
  RAC1 mRNA level: 0.89 and 1.51 and 1.36 and 1.27 and 1.10 and 1.63 and 1.34
  RARa mRNA level: 1.23 and 0.87 and 0.82 and 0.27 and 1.06 and 2.06 and 1.10
  RICTOR mRNA level: 0.96 and 1.28 and 0.65 and 0.74 and 1.53 and 1.63
[2]; Fig. 2d (right), individual replicate values
  CMA activation score: 0.1487 and -0.2323 and 0.1868 and 0.1591
[2]; NIH3T3, 20μM for 24 h
  predicted CMA score compared to AR7: higher
[3]; 12+12w, concentration 0.2
  CMA activity, mean relative to concentration 0 = 1 (Fig. S2b): 0.9934
[3]; 12+12w, concentration 2
  CMA activity, mean relative to concentration 0 = 1 (Fig. S2b): 0.9832
[3]; 12+12w, concentration 5
  CMA activity, mean relative to concentration 0 = 1 (Fig. S2b): 2.103
[3]; 12+12w, concentration 10
  CMA activity, mean relative to concentration 0 = 1 (Fig. S2b): 2.605
[3]; 12+12w, concentration 20
  CMA activity, mean relative to concentration 0 = 1 (Fig. S2b): 4.196
[3]; 12+12w, concentration 30
  CMA activity, mean relative to concentration 0 = 1 (Fig. S2b): 3.752
[3]; 12h, concentration 0.02
  CMA activity, mean (Fig. S2a): 2.724
[3]; 12h, concentration 0.2
  CMA activity, mean (Fig. S2a): 4.16
  CMA activity, mean relative to concentration 0 = 1 (Fig. S2b): 0.9543
[3]; 12h, concentration 2
  CMA activity, mean (Fig. S2a): 4.326
  CMA activity, mean relative to concentration 0 = 1 (Fig. S2b): 0.9922
[3]; 12h, concentration 5
  CMA activity, mean (Fig. S2a): 6.6688
  CMA activity, mean relative to concentration 0 = 1 (Fig. S2b): 1.5297
[3]; 12h, concentration 10
  CMA activity, mean (Fig. S2a): 9.952
  CMA activity, mean relative to concentration 0 = 1 (Fig. S2b): 2.283
[3]; 12h, concentration 20
  CMA activity, mean (Fig. S2a): 10.0764
  CMA activity, mean relative to concentration 0 = 1 (Fig. S2b): 2.311
[3]; 12h, concentration 30
  CMA activity, mean (Fig. S2a): 18.9972
[3]; 12h, concentration 40
  CMA activity, mean (Fig. S2a): 10.5987
[3]; 12h, concentration 50
  CMA activity, mean (Fig. S2a): 9.368
[3]; 12h, concentration 60
  CMA activity, mean (Fig. S2a): 2.016
[3]; 24h, concentration 0.02
  CMA activity, mean (Fig. S2a): 2.2722
[3]; 24h, concentration 0.2
  CMA activity, mean (Fig. S2a): 4.676
  CMA activity, mean relative to concentration 0 = 1 (Fig. S2b): 0.9787
[3]; 24h, concentration 2
  CMA activity, mean (Fig. S2a): 4.697
  CMA activity, mean relative to concentration 0 = 1 (Fig. S2b): 0.9831
[3]; 24h, concentration 5
  CMA activity, mean (Fig. S2a): 13.5914
  CMA activity, mean relative to concentration 0 = 1 (Fig. S2b): 2.845
[3]; 24h, concentration 10
  CMA activity, mean (Fig. S2a): 13.8573
  CMA activity, mean relative to concentration 0 = 1 (Fig. S2b): 2.901
[3]; 24h, concentration 20
  CMA activity, mean (Fig. S2a): 21.7668
  CMA activity, mean relative to concentration 0 = 1 (Fig. S2b): 4.556
[3]; 24h, concentration 30
  CMA activity, mean (Fig. S2a): 18.5853
  CMA activity, mean relative to concentration 0 = 1 (Fig. S2b): 3.89
[3]; 24h, concentration 40
  CMA activity, mean (Fig. S2a): 10.9146
[3]; 24h, concentration 50
  CMA activity, mean (Fig. S2a): 9.363
[3]; 24h, concentration 60
  CMA activity, mean (Fig. S2a): 0.7571
[3]; in words
  CMA activation in neuron-related mouse cells: efficiently activated CMA
